Results published in patent US20180110754A1, “CENICRIVIROC FOR THE TREATMENT OF FIBROSIS” (Tobira Therapeutics, Inc., priority 2015, published 2018).

Columns and labels:
CCR2 = molecular target: T1, CCR2 (Homo sapiens, UniProt P41597); experiment: MCP-1-induced CCR2 internalization / CCR2 receptor occupancy on monocytes (flow cytometry); type: cell-based
T1 construct: endogenous in cells; host or cells: monocytes within PBMCs from HIV+ and HIV- subjects
T1 sequence (P41597 1-360 isoform P41597-2): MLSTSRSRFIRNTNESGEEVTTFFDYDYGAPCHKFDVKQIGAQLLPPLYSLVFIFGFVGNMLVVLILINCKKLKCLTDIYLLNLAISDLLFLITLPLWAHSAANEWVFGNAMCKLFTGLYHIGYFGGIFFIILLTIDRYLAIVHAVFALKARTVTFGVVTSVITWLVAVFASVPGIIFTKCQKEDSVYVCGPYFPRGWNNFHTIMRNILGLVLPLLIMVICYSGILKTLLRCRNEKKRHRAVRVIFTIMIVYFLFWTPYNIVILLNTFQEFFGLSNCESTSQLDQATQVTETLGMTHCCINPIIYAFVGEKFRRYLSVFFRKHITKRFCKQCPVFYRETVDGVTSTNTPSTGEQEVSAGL
Method: (§1) The capacity of each drug to inhibit CCR5 or CCR2 internalization was evaluated. Cell-surface expression of CCR5 and CCR2 was assessed by flow cytometry, and fluorescence values were converted into molecules of equivalent soluble fluorescence (MESF).

[1] = system: thioglycollate-induced peritonitis (monocyte/macrophage and leukocyte recruitment); experiment: Mouse thioglycollate-induced peritonitis model: peritoneal lavage cell counts, body weight; type: in vivo
Method: Summary: The mouse thioglycollate induced peritonitis model is a commonly used preclinical model to assess the recruitment of […] cells and to assess the activation of macrophages.
Dexamethasone was used as a positive control in this experiment as it is a corticosteroid known to reduce inflammation in a variety of animal models. Murine inflammation models indicate that the effective dose range for dexamethasone, when administered orally, is 0.3 to 3 mg/kg QD. On this basis, an intermediate dose of 1 mg/kg was chosen for this particular study.
The lavage was repeated with a second injection of 2.5 mL via the initial puncture site and the samples were pooled for each animal.
The lavage fluid was placed on wet ice pending processing for total and differential cell counts using the Advia analyzer. Following the lavage collection, a blood sample (0.7 mL) was collected from each mouse by intracardiac puncture or from the vena cava (collection time was recorded). 0.5 mL of blood was placed in an EDTA tube, transferred to clinical pathology and analyzed for differential cell counts using the Advia analyzer. 0.2 mL of blood was placed in a K2EDTA tube and processed to plasma. The plasma was collected by centrifugation (3000 rpm for 10 minutes at 4° C.) and placed on dry ice. […] After blood collection, the animals were then exsanguinated by sectioning of the abdominal aorta.
Statistical Analysis: One-way ANOVA with post-hoc Dunnett's statistical analysis was performed on differential cell counts obtained from lavage and blood samples. The analysis was performed in comparison to Group 2.

CCR5 [2] = molecular target: T2, CCR5 (Homo sapiens, UniProt P51681); experiment: Inhibition of chemokine binding to CCR5-expressing CHO cells
[3] = Solubility of cenicriviroc mesylate in solvents and aqueous solution; type: physicochemical
Excerpt: In one embodiment, the acid addition salt of cenicriviroc is cenicriviroc mesylate, e.g., (5)-8-[4-(2-Butoxyethoxy)phenyl]-1-isobutyl-N-(4-{[(1-propyl-1H-imidazol-5-yl)methyl]sulfinyl}phenyl)-1,2,3,4-tetrahydro-1-benzazocine-5-carboxamide monomethanesulfonoate. In one embodiment, the cenicriviroc mesylate is a crystalline material, such as a pale greenish-yellow crystalline powder.

CCR5 [4] = molecular target: T2, CCR5; experiment: RANTES-induced CCR5 internalization / CCR5 receptor occupancy in PBMCs (flow cytometry); type: cell-based
Method: as §1

HIV-1 BaL [5] = experiment: Extracellular virus (viral RNA, p24) in culture fluids of PM-1 cells exposed to HIV-1 BaL; type: cell-based; details: 4 hrs post-infection, CVC 20 nM, MVC 50 nM
Excerpt: Cells. PM-1 cells that express CD4, CCR5, and CXCR4 were maintained in RPMI-1640 medium containing 10% fetal bovine serum (R10 medium) at 37C, 5% CO2. 293T cells used for transfection were maintained in DMEM at 10% FBS, L-glutamine, and antibiotics (D10 medium) at 37C, 5% CO2. Virus Stocks. HIV-1 BaL virus was produced by transfecting 293T cells with the plasmid pWT/BaL. Lipofectamine 2000 was used as a transfection agent. Culture supernatants were collected at 48 hrs post-transfection, filtered through a 0.45 μm pore filter, and treated with 50 units of benzonase per ml of virus stock for 20 minutes at 37C to remove contaminating plasmid DNA. Virus stocks were frozen at −80C to halt benzonase activity. Benzonase-treated virus stocks were propagated in cord blood mononuclear cells (CBMCs). CBMCs were stimulated for 72 h with phytohemagluttinin (PHA-M) in R10 medium prior to infection with HIV-1 BaL. The viral amplification culture was subsequently grown in R10 supplemented with interleukin 2 (IL-2) and incubated at 37C, 5% CO2.
Both drugs were incubated with PM-1 cells for 1 hr at 37 C prior to the addition of virus. 500 ng of p24 antigen of HIV-1 BaL were incubated per 5×10^5 cells in 1 ml of R10 media. Virus only controls, described as “no cell” in the text, were used to measure viral decay. Viral adsorption was measured in the no-drug controls, whereby 500 ng of p24 Ag of HIV-1 Bal were added per 5×10^5 PM-1 cells that were pre-incubated at 37 C for 1 hr in the absence of drug treatment. Each drug treatment and control was performed in duplicate. Viral RNA was extracted from 140 μl of supernatant fluid using the QIAamp Viral RNA mini kit according to manufacturer's instructions. Samples were stored at −80 C until analysis. Supernatant viral loads were measured using quantitative real-time reverse transcription PCR (qRT-PCR) with the primers US1SSF (5′-[…]-3′), US1SSR (5′-[…]-3′) and US1SS probe (5′-(FAM) […]) and the Invitrogen qRT-PCR Supermix Kit. Cycling parameters were: 50° C. for 15 minutes, 95° C. for 10 minutes, followed by 50 cycles of 95° C. for 15 seconds, and 60° C. for 1 minute. All values are the result of replicate testing over 2 independent experiments. RNA copy number was quantified by use of 10-fold serial dilutions of pBaL/wt to generate standard curves for each assay and calibrated against samples with known copy numbers from previous studies.

HIV-1 BaL [6] = experiment: Intracellular strong-stop HIV DNA in PM-1 cells infected with HIV-1 BaL; type: cell-based; details: 4 hrs, CVC 20 nM, MVC 50 nM
Method: Both drugs were incubated with PM-1 cells for 1 hr at 37 C prior to the addition of virus. 500 ng of p24 antigen of HIV-1 BaL were incubated per 5×10^5 cells in 1 ml of R10 media. Virus only controls, described as “no cell” in the text, were used to measure viral decay. Viral adsorption was measured in the no-drug controls, whereby 500 ng of p24 Ag of HIV-1 Bal were added per 5×10^5 PM-1 cells that were pre-incubated at 37 C for 1 hr in the absence of drug treatment. Each drug treatment and control was performed in duplicate. Viral RNA was extracted from 140 μl of supernatant fluid using the QIAamp Viral RNA mini kit according to manufacturer's instructions. Samples were stored at −80 C until analysis. Supernatant viral loads were measured using quantitative real-time reverse transcription PCR (qRT-PCR) with the primers US1SSF (5′-[…]-3′), US1SSR (5′-[…]-3′) and US1SS probe (5′-(FAM) […]) and the Invitrogen qRT-PCR Supermix Kit. […] RNA copy number was quantified by use of 10-fold serial dilutions of pBaL/wt to generate standard curves for each assay and calibrated against samples with known copy numbers from previous studies.
Intracellular DNA qPCR. Total DNA was extracted, quantified, and stored at −80 C. Intracellular strong-stop DNA levels were quantified with the US1SS primer/probe set described above. […]

T2 sequence (P51681 whole entry): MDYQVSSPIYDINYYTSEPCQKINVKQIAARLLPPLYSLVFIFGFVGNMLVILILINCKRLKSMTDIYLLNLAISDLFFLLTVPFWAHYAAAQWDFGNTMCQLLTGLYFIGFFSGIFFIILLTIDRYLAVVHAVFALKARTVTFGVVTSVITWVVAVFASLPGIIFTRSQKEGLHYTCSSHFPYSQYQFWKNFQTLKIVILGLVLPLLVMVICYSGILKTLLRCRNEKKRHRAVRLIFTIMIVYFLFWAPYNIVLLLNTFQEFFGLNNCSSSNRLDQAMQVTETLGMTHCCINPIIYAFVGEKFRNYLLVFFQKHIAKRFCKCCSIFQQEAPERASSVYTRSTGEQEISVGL

CSc1ccc(C(=O)N[C@@H]2CCCC[C@@H]2NC(=O)CNC(=O)c2cc(C(F)(F)F)ccc2NC(=O)NC(C)C)cc1 [BMS-22, reference compound]
Concentration required to reach >80% CCR2 receptor occupancy (average) (CCR2): 18 nM | CCR2 cell-surface expression (CCR2; in the absence of MCP-1): slightly increased CCR2 cell-surface expression

C[C@@H]1C[C@H]2[C@@H]3CCC4=CC(=O)C=C[C@]4(C)[C@@]3(F)[C@@H](O)C[C@]2(C)[C@@]1(O)C(=O)CO [Dexamethasone, dexamethasone, reference compound]
Decrease in monocytes in peritoneal lavage vs thioglycollate control ([1]; Group 7, 1 mg/kg oral): 38.1% | Decrease in total leukocyte counts in peritoneal lavage vs thioglycollate control ([1]; Group 7, 1 mg/kg oral): 26.6% | Body weights, Days 1 to 6 ([1]; mouse, in vivo): decreased slightly

CCCCOCCOc1ccc(-c2ccc3c(c2)C=C(C(=O)Nc2ccc(SC)cc2)CCCN3CC(C)C)cc1 [M-II]
IC50, inhibition of RANTES binding to CCR5-expressing cells (CCR5 [2]; CHO cells): no effect on binding of RANTES

CCCCOCCOc1ccc(-c2ccc3c(c2)C=C(C(=O)Nc2ccc(S(=O)(=O)Cc4cncn4CCC)cc2)CCCN3CC(C)C)cc1 [M-I]
IC50 relative to the IC50 of CVC (RANTES binding to CCR5) (CCR5 [2]): approximately 2 fold | IC50 (CCR5 [2]; CHO cells, read-out: IC50, inhibition of RANTES binding to CCR5-expressing cells): 6.5 nM

(5)-8-[4-(2-Butoxyethoxy)phenyl]-1-isobutyl-N-(4-{[(1-propyl-1H-imidazol-5-yl)methyl]sulfinyl}phenyl)-1,2,3,4-tetrahydro-1-benzazocine-5-carboxamide monomethanesulfonoate [cenicriviroc mesylate]
Solubility ([3]; 99.5% ethanol): sparingly soluble | Solubility ([3]; acetonitrile, 1-octanol, tetrahydrofuran): slightly soluble | Solubility ([3]; ethyl acetate and diethylether): practically insoluble | Solubility ([3]; glacial acetic acid, methanol, benzyl alcohol, dimethylsulfoxide, N,N-dimethylformamide): freely soluble | Solubility in aqueous solution ([3]; pH 1 to 2): freely soluble | Solubility in aqueous solution ([3]; pH 3): sparingly soluble | Solubility in aqueous solution ([3]; pH 4 to 13 and in water): practically insoluble | Solubility ([3]; pyridine and acetic anhydride): soluble

Maraviroc [MVC, reference compound]
CCR5 receptor occupancy at saturation (CCR5 [4]; CD4+ T cells): ~86% | Effective concentration at which saturation of CCR5 was reached (CCR5 [4]; CD4+ T cells): 12.5 nM | CCR5 receptor occupancy at saturation (CCR5 [4]; CD8+ T cells): ~87% | Effective concentration at which saturation of CCR5 was reached (CCR5 [4]; CD8+ T cells): 12.5 nM | Cell-surface expression of CCR5 (CCR5 [4]; in the absence of RANTES): increased cell-surface expression of CCR5 | p24 antigen level in culture fluids (HIV-1 BaL [5]; baseline 506 ng/ml): 520 ng/mL | Viral RNA in culture fluids (HIV-1 BaL [5]; baseline 1.19×10^10): 1.67×10^10 copies/ml | Relative intracellular strong-stop HIV DNA level compared to no drug control (HIV-1 BaL [6]): 0.02
